Data as given in patent US20120225093A1, “Abrogating HIV-1 Infection via Drug-Induced Reactivation of Apoptosis” (UNIVERSITY OF MEDICINE AND DENTISTRY OF NEW JERSEY, priority 2010, published 2012).

What was measured:
[1] = tested on: CMV immediate early promoter; experiment: CMV promoter-driven luciferase (pCMV-Ren, pCMV-FF) in 293T cells; format: cell-based, cytomegalovirus; conditions: for CMV-driven Renilla luciferase expression: pCMV-Ren
Method: Plasmids were introduced into 2×10^5 293T cells by transfection using Lipofectamine 2000 (Invitrogen) according to the manufacturer's instructions. Compounds (such as CPX or DEF) were added simultaneously. Cells were harvested at 12 hr post-transfection, washed with PBS, lysed in 0.15 ml of 1× passive lysis buffer (Promega), and assayed for luciferase activity using the Promega dual luciferase reporter system according to the manufacturer's instructions. Jurkat cells (1×10^6 cells) were transfected using FuGENE 6 (Roche) according to the manufacturer's instructions and assayed in a similar fashion after pelleting.
293T cells were selected as a model system to explore the relationship between the drugs, eIF5A and HIV gene expression. These cells efficiently transcribe HIV-1 genes from molecular clones as well as subviral constructs, allowing for early detection of changes in HIV gene expression. To establish the system, assays were carried out to examine the effect of CPX and DEF on the expression of firefly luciferase (FF) from the HIV-1 molecular clone, pNL4-3-LucE-, engineered to carry the FF gene in place of the viral nef gene. The molecular clone was transfected into 293T cells together with the pCMV-Ren vector that expresses Renilla luciferase (Ren) from the cytomegalovirus (CMV) immediate early promoter as a control for transfection efficiency and non-specific effects of the compounds. Dual luciferase assays were conducted at 12 hr post-transfection and results are expressed as relative luciferase activity (FF:Ren). […] Assays therefore were carried out to characterize the action of CPX and DEF on eIF5A and HIV gene expression in 293T cells during the first 12 to 24 hr of drug treatment.

uninfected H9 cells = experiment: Mitochondrial membrane potential (JC-1) in uninfected H9 cells; format: cell-based; conditions: 30 μM CPX; 200 μM DEF
Method: (§1) The potential across the mitochondrial membrane of live cells was determined flow-cytometrically with the lipophilic cationic fluorochrome JC-1 (5,5′,6,6′-tetrachloro-1,1′,3,3′-tetraethylbenzimidazolcarbocyanine iodide) immediately after sample harvest (BD™ Mitoscreen Kit, BD Biosciences; San Diego, Calif.). DNA fragmentation was quantified flow-cytometrically, using a TUNEL (terminal deoxynucleotide transferase dUTP nick end-labeling) assay (APO-BRDU™; Phoenix Flow Systems; San Diego, Calif.) and a dual-color assay for annexin V binding and 7-AAD exclusion (Annexin V-PE 7-AAD Apoptosis Detection Kit I™; BD Biosciences Pharmingen, San Jose, Calif.). The apoptotic volume decrease of cells was assessed by the reduction of their diameter (VI-CELL™; Beckman Coulter; Fullerton, Calif.).
(§2) Next the effect of the drugs on apoptosis in H9 and H9-HIV cells was examined. Both CPX and DEF increased the collapse of Δψ in a manner that was dose-dependent and accentuated by viral infection (FIGS. 8E and F). […] Thus, exposure to CPX or DEF counteracted the HIV-mediated reduction of Δψ collapse and rendered infected cells more susceptible than uninfected cells to an early step in drug-induced apoptosis.

H9-HIV cells [2] = experiment: Apoptosis in H9-HIV cells: annexin V binding, cell diameter, cell survival; format: cell-based; conditions: CPX 30 μM, DEF 200 μM; for increase in annexin-V binding, 7-AAD-negative cell population: by 24 hr
Method: Uninfected and uniformly HIV-1 (HTLV-IIIB) infected H9 cells, obtained from the NIH AIDS Research and References Reagent Program, were cultured at 37° C. in a humidified atmosphere (5% CO2, 95% humidity) using RPMI 1640 medium supplemented with 2 mM L-glutamine, […], […] and 20% fetal calf serum.
Viability, diameter, and cell number of PBMCs and H9 cells were measured by computerized image analysis of trypan blue exclusion (VI-CELL™; Beckman Coulter; Fullerton, Calif.). PBMCs were counted with an automated, multi-parameter hematology analyzer (CELL-DYN™; Abbott Laboratories, Abbott Park, Ill.).
as §1
First, whether both drugs elicit apoptosis in H9-HIV cells was determined. The cells were exposed to CPX or DEF, and annexin-V binding, cell diameter and cell survival were assayed in a time-dependent manner. By 24 hr, drug treatment elicited a ˜5-fold increase in the percentage of the 7-AAD-negative cell population capable of binding annexin-V to exposed membrane phospholipid phosphatidylserine, with little further increase at 48 hr (FIG. 8A). Both drugs elicited a decrease in mean cell diameter of ˜15% within 24 hr and ˜30% within 48 hr, indicating volume constriction characteristic of apoptosis but not necrosis (FIG. 8B). Concomitantly, cell survival decreased ˜2 fold at 24 hr and ˜5 fold at 48 hr (FIG. 8C).

H9-HIV cells [3] = experiment: Mitochondrial membrane potential (JC-1) in H9-HIV cells; format: cell-based; conditions: for Δψ collapse at low drug concentrations: 5 and 15 μM CPX, 50 and 100 μM DEF; for collapse of Δψ, infected versus uninfected cells: 24 hr, 30 μM CPX, 200 μM DEF
Method: as §1, §2

Row | SMILES | expression from pCMV-FF (construct I) [1] | CMV-driven Renilla luciferase expression [1] | concentrations needed for enhanced Δψ collapse (uninfected H9 cells) | decrease in cell survival (H9-HIV cells [2]; at 24 hr) [fold] | decrease in cell survival (H9-HIV cells [2]; at 48 hr) [fold] | increase in annexin-V binding, 7-AAD-negative cell population (H9-HIV cells [2]) [fold] | decrease in mean cell diameter (H9-HIV cells [2]; within 24 hr) [%] | decrease in mean cell diameter (H9-HIV cells [2]; within 48 hr) [%] | Δψ collapse at low drug concentrations (H9-HIV cells [3]) | collapse of Δψ, infected versus uninfected cells (H9-HIV cells [3])
1 | Cc1cc(C2CCCCC2)n(O)c(=O)c1 [CPX, 6-cyclohexyl-1-hydroxy-4-methylpyridin-2[1H]-one] | unaffected | no effect on CMV-driven Renilla luciferase expression | higher concentrations were required | ~2 | ~5 | ~5 | ~15 | ~30 | enhanced Δψ collapse even at low drug concentrations | significantly increased collapse of Δψ compared to uninfected cells
2 | Cc1c(O)c(=O)ccn1C [DEF, 3-hydroxy-1,2-dimethylpyridin-4(1H)-one] | unaffected | no effect on CMV-driven Renilla luciferase expression | higher concentrations were required | ~2 | ~5 | ~5 | ~15 | ~30 | enhanced Δψ collapse even at low drug concentrations | significantly increased collapse of Δψ compared to uninfected cells
